Results as given in patent US20160363584A1, “SYSTEMS AND METHODS FOR STUDYING INFLAMMATION-DRUG INTERACTIONS” (Hepregen Corporation, priority 2012, published 2016).
Read-outs that look alike come from different tables or passages of the source.

Columns and labels:
[1] = tested on: human Kupffer cell-treated HepatoPac™ model; experiment: Chronic toxicity platform, nine day treatment, cellular ATP content; assay type: cell-based; settings: for Toxicity in the presence of LPS-stimulated Kupffer cells: 50 ng/ml LPS; for Toxicity following nine days of compound dosing: all treatment conditions (HepatoPac or Kupffer cell-treated, +/- LPS)
Experimental: Chronic toxicity of various compounds suspected to be immunoreactive was evaluated with the human Kupffer cell-treated HepatoPac™ model (hepatocyte:Kupffer cell ratio of 1:0.4). Following a nine day treatment, compound toxicity was assessed as a function of cellular ATP content. TVX was used as a positive control. […] On day 7, cryopreserved unmatched Kupffer cells were added to the cultures. The cultures were dosed with compounds on culture Day 8 (hereby referred to as Dosing Day 0). On Dosing Day 1, LPS was added to the culture media at a final concentration of 50 ng/ml. On Dosing Day 3, 10 μl of supernatant was removed from cultures for urea analysis and replaced with an additional dose of the test compound. Similarly, supernatant was collected and cultures were re-dosed on Dosing Days 5 and 7. On Dosing Day 9, supernatant was collected and the cellular ATP content of the cultures was assessed (Promega Cell Titer Glo). Urea secretion of hepatocytes was quantified for the time-points of Dosing Day […], 5, 7, and 9 (data not shown).

[2] = tested on: human Kupffer-HepatoPac™ cultures; assay type: cell-based
Experimental: Cryopreserved human hepatocytes, cryopreserved human Kupffer cells and 3T3 J2 mouse fibroblasts were used in the manufacturing of the co-culture platform. Cryopreserved hepatocyte vials were thawed in a 37° C. water bath for 90-120 seconds followed by dilution in 50 mL of pre-warmed percoll-based hepatocyte density sedimentation medium (p=1.06). The cell suspension was spun at 50×g for 5 minutes. The supernatant was discarded, cells were resuspended in hepatocyte culture media (HCM) (Hepregen Corporation, Medford, Mass.) and viability was assessed using trypan blue exclusion (typically 80-95%). Liver-derived non-parenchymal cells, as judged by their size (˜10 μm in diameter) and morphology (non-polygonal), were consistently found to be less than 1% in these preparations. […] Kupffer cells were gently rocked into suspension and evaluated for viability via Trypan Blue exclusion. […]
Cytotoxicity was assessed by evaluation of cellular ATP content while hepatocyte metabolic competence was assessed by urea production. […] The reaction is based on the acid catalyzed condensation of urea with diacetylmonoxime in the presence of thiosemicarbazide to yield a red purple chromogen that is read spectrophotometrically. The cellular ATP content was measured in cell lysates using the Cell Titer-Glo luminescent kit from Promega (Madison, Wis.). […]

[3] = tested on: mouse; settings: cited from earlier work; for Effect on TVX/LPS toxic response: in vivo mouse model, Shaw et al.
[4] = tested on: Human HepatoMune™ co-cultures; experiment: cells
Experimental: Hepatocytes were seeded on micropatterned collagen plates on Day 0. On Day 1, 3T3 fibroblasts were added to the cultures. Human HepatoPac® co-cultures were allowed to stabilize functionally for 7 days in serum-supplemented medium. Human Kupffer cells (from unmatched donors) were seeded onto the hepatocyte cocultures on Day 7 of culture at a hepatocyte to Kupffer cell ratio of 10:4. […] Cell lysates from each treatment group were collected on days 11 and 14 of culture for assessment of drug-induced effects on cytotoxicity.

[5] = tested on: rat Kupffer-HepatoPac™ cultures; assay type: cell-based
Experimental: Cytotoxicity was assessed by evaluation of cellular ATP content while hepatocyte metabolic competence was assessed by urea production. Production of urea, a liver-specific function, was assayed in culture media using the Stanbio kit according to manufacturer's directions. The reaction is based on the acid catalyzed condensation of urea with diacetylmonoxime in the presence of thiosemicarbazide to yield a red purple chromogen that is read spectrophotometrically. The cellular ATP content was measured in cell lysates using the Cell Titer-Glo luminescent kit from Promega (Madison, Wis.).
HepatoPac™ co-cultures were first allowed to stabilize functionally in serum-supplemented media for a 7-day period. Species-matched Kupffer cells were added to human and rat HepatoPac™ at multiple ratios (to mimic both the normal and inflamed state of the liver). To mimic the physiological state, human and rate Kupffer cells were added at hepatocyte:Kupffer cell ratios of 1:0.1 and 1:0.2, respectively. To mimic the inflamed state human Kupffer cells (at a ratio of 1:0.4 hepatocytes:Kupffer cells) or rat Kupffer cells (at a ratio of 1:0.5 hepatocytes:Kupffer cells) were then added to the cultures. On day 8 of culture, the cultures were treated with increasing concentrations of either Trovafloxacin or Levofloxacin (0-400 μM) in serum-free media. 24 hrs later, the cultures were stimulated with 50 ng/mL LPS. […]

[6] = tested on: TNF-α; experiment: TNF-α secretion in TVX/LPS-treated rat cultures with pentoxifylline; assay type: cell-based; settings: 5 mM pentoxifylline
Experimental: Cultures were treated with Trovafloxacin and 5 mM Pentoxifylline for 72 hours. After 24 hours of dosing, Kupffer cells were activated with 50 ng/ml of LPS.

[7] = tested on: HepatoPac™-Kupffer cell co-cultures; experiment: IL-6 secretion after cytokine exposure of HepatoPac-Kupffer cell co-cultures; assay type: cell-based, human; settings: 2 or 4 day treatment
Experimental: (§1) Cultures received 2 or 4 day treatment with IL-2, IL-1B, TNF-α, or IL-6 in serum-free media after which cytokine levels were assayed in their supernatants, Cyp3A4 activity was determined using the P450-Glo Assay (Promega), total ATP was measured (Promega Cell-Titer Glo) and RNA was extracted (Qiagen Rneasy).
Cultures were exposed to IL-2, IL-1B and TNF-α and secretion of IL-6 into the culture supernatant was measured.

[8] = tested on: CYP3A4
Experimental: as §1
Standard human HepatoPac™ and Kupffer cell-treated HepatoPac™ (hepatocyte:Kupffer cell ratio of 1:0.4) cultures were treated with the inflammatory cytokine IL-1B for 4 days. Sensitivity to IL-1B was measured as a function of Cyp3A4 activity repression. Following 4 days of IL-1B treatment, cytokines were removed and cultures were allowed to recover for 6 days.

N[C@@H]1[C@H]2CN(c3nc4c(cc3F)c(=O)c(C(=O)O)cn4-c3ccc(F)cc3F)C[C@@H]12 [TVX, trovafloxacin]
Toxicity in the presence of LPS-stimulated Kupffer cells ([1]; 9-day treatment): increased toxicity | Toxicity following nine days of compound dosing [1]: toxicity in all treatment conditions was observed | TVX toxicity on addition of TNF-α [2]: potentiates TVX toxicity | Toxicity under LPS-induced inflammatory stress ([3]; mouse, in vivo): toxic

CN(C)CCCN1c2ccccc2Sc2ccc(Cl)cc21 [chlorpromazine]
IC50 ([4]; read-out: IC50 (concentration at which 50% of the cells are dead), absence of LPS): 29 µM | IC50 ([4]; read-out: IC50 (concentration at which 50% of the cells are dead), presence of 50 ng/ml LPS): 17 µM

O=C(O)Cc1ccccc1Nc1c(Cl)cccc1Cl [diclofenac]
LPS-mediated toxicity after 3-day treatment ([1]; 3-day treatment (data not shown)): did not result in increased LPS-mediated toxicity | Toxicity in the presence of LPS-stimulated Kupffer cells ([1]; 9-day treatment): increased toxicity

CC(=O)N1CCN(c2ccc(OCC3COC(Cn4ccnc4)(c4ccc(Cl)cc4Cl)O3)cc2)CC1 (stereo not drawn) [ketoconazole]
Difference in TC50 between treatment groups ([1]; 9-day treatment): no significant difference | Toxicity following nine days of compound dosing [1]: toxicity in all treatment conditions was observed

C[C@H]1COc2c(N3CCN(C)CC3)c(F)cc3c(=O)c(C(=O)O)cn1c23 [levofloxacin]
Toxicity (cellular ATP content) [5]: not toxic

CC(=O)CCCCn1c(=O)c2c(ncn2C)n(C)c1=O [pentoxifylline]
Effect on TNF-α secretion [6]: significantly decreased | Effect on TVX/LPS-induced HepatoPac toxicity ([5]; 5 mM pentoxifylline, 72 hours, 50 ng/ml LPS after 24 hours): significantly decreased | Effect on TVX/LPS toxic response [3]: toxicity abrogation

IL-1B: inflammatory cytokine
IL-6 secretion into the culture supernatant [7]: causes IL-6 release | CYP3A4 expression [8]: Repression of CYP3A4 expression | Cyp3A4 activity [8]: dose-dependent and Kupffer cell-enhanced repression | Time Cyp3A4 activity remained repressed after removal of IL-1B ([8]; human, 96 h): 4 days

IL-6: cytokine
Cyp3A4 activity [8]: maintains repression

TNF-α
IL-6 secretion into the culture supernatant [7]: no effect

etanercept
Effect on TVX/LPS toxic response [3]: toxicity abrogation
